{"source": "paper PMC2916745", "about": "(Journal of medicinal chemistry, 2010)", "key": {"[1]": {"test_system": "tamoxifen-resistant breast tumors", "details": "cited from earlier work"}, "human ERα": {"molecular_target": "T1, human ERα (Homo sapiens, UniProt P03372)", "T1 sequence (P03372 1-595)": "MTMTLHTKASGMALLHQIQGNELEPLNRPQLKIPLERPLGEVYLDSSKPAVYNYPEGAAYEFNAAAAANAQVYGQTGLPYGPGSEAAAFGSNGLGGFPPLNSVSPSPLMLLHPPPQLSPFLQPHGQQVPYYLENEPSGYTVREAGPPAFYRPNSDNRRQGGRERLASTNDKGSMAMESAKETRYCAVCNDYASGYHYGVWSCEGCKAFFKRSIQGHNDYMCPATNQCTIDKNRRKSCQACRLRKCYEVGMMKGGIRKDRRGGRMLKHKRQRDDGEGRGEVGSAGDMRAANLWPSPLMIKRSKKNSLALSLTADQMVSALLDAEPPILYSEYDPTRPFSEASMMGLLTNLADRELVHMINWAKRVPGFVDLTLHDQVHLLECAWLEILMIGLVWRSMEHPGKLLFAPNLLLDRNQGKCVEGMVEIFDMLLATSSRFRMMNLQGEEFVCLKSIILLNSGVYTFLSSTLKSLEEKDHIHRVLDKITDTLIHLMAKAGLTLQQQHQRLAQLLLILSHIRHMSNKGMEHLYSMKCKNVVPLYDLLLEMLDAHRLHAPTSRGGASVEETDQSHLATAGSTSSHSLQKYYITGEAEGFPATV", "assay": "competitive radiometric binding assay with [3H]estradiol, ERα", "details": "relative binding affinity, IC50[estradiol]/IC50[compound] × 100, estradiol = 100; 10 nM [3H]estradiol, 18-24 h at 0 °C; average ± range or SD"}, "human ERβ": {"molecular_target": "human ERβ (Homo sapiens, UniProt Q92731)", "sequence (Q92731 whole entry)": "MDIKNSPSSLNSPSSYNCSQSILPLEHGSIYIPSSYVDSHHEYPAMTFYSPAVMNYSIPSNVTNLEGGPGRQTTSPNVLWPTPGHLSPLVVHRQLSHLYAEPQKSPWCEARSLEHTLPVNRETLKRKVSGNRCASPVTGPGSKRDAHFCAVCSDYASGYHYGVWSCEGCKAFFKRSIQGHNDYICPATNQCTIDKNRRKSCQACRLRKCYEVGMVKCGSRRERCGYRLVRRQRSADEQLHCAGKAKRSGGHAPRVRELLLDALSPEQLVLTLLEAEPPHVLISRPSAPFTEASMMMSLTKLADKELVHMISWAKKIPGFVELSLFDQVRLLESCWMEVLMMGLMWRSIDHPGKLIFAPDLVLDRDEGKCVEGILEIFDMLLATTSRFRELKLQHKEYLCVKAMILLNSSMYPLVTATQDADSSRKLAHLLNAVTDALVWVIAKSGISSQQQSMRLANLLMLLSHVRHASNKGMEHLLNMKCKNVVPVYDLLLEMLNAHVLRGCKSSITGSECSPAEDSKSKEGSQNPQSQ", "assay": "competitive radiometric binding assay with [3H]estradiol, ERβ"}, "ERα-target genes": {"test_system": "ERα-target genes", "assay": "real-time PCR analysis of ERα target genes in MCF-7 cells", "assay_type": "cell-based, human", "details": "1 μM compound, 1 nM E2, RNA level"}, "[2]": {"details": "cited from earlier work"}, "[3]": {"test_system": "tamoxifen-resistant breast cancer cells", "details": "cited from earlier work"}, "[4]": {"details": "Figure 6B, not fully reversed to control"}}}
{"compound": "CC/C(=C(\\c1ccccc1)c1ccc(/C=C/C(=O)O)cc1)c1ccccc1", "note": "[Compound 1]", "values": [{"measurement": "growth of tamoxifen-resistant breast tumors", "setting": "[1]", "value": "can inhibit"}]}
{"compound": "CC(=O)Oc1ccc(C(=C2CCCCC2)c2ccc(OC(C)=O)cc2)cc1", "note": "[Compound 2, cyclofenil]", "values": [{"measurement": "RBA ERα", "setting": "human ERα", "value": "68 ± 18"}, {"measurement": "β/α", "setting": "human ERβ; ratio of RBA values, >1 for higher affinity on ERβ than on ERα", "value": 4.9}, {"measurement": "RBA ERβ", "setting": "human ERβ; relative binding affinity, IC50[estradiol]/IC50[compound] × 100, estradiol = 100, 10 nM [3H]estradiol, 18-24 h at 0 °C, average ± range or SD", "value": "334 ± 54"}]}
{"compound": "CC/C(=C(\\c1ccc(O)cc1)c1ccc(/C=C/C(=O)O)cc1)c1ccccc1", "note": "[Compound 4]", "values": [{"measurement": "E2-mediated activation of the CA12 gene", "setting": "ERα-target genes; Figure 6A", "value": "most effective"}, {"measurement": "E2-mediated stimulation of the PR gene", "setting": "ERα-target genes; Figure 6A", "value": "significantly blocked"}, {"measurement": "E2-mediated stimulation of the pS2 gene", "setting": "ERα-target genes; Figure 6A", "value": "significantly blocked"}, {"measurement": "E2-mediated repression of BLNK gene expression", "setting": "ERα-target genes; [4]", "value": "reduce"}, {"measurement": "E2-mediated repression of ENC1 gene expression", "setting": "ERα-target genes; [4]", "value": "reduce"}]}
{"compound": "C[C@]12CC[C@@H]3c4ccc(O)cc4C[C@@H](CCCCCCCCC[S+]([O-])CCCC(F)(F)C(F)(F)F)[C@H]3[C@@H]1CC[C@@H]2O", "note": "(some centres unmarked) [ICI 182,780]", "values": [{"measurement": "oral bioavailability", "setting": "[2]", "value": "poor"}, {"measurement": "growth of tamoxifen-resistant breast cancer cells", "setting": "[3]", "value": "capable of inhibiting"}]}
